Laboratory results published in the supplement of paper PMC5908809.

Tests used:
[1] = tested on: normal NK cells expanded with K562-aAPC; experiment: percent inhibition of viability; higher = more inhibition; conditions: 72 h, IL-2 2.5 ng/mL
Experimental: (§1)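 Drug sensitivity and resistance testing on K562-aAPC-expanded normal NK cells: 5 concentrations (10-fold steps over a 10,000-fold range), 72 h at 37 °C, viability by CellTiter-Glo normalised to DMSO and benzethonium chloride controls; DSS from the fitted curve.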

[2] = tested on: DERL-7 (IL-2 2.5 ng/mL); experiment: as above; conditions: 72 h
[3] = tested on: IMC-1 (IL-2 20 ng/mL); experiment: as above; conditions: 72 h
[4] = tested on: KAI3 (IL-2 2.5 ng/mL); experiment: as above; conditions: 72 h
[5] = tested on: KHYG-1 (IL-2 2.5 ng/mL); experiment: as above; conditions: 72 h
[6] = tested on: NK-92 (IL-2 2.5 ng/mL); experiment: as above; conditions: 72 h
[7] = tested on: NK-YS (IL-2 2.5 ng/mL); experiment: as above; conditions: 72 h
[8] = tested on: NKL (IL-2 2.5 ng/mL); experiment: as above; conditions: 72 h
[9] = tested on: SNK-6 (IL-2 2.5 ng/mL); experiment: as above; conditions: 72 h
[10] = tested on: YT (IL-2 2.5 ng/mL); experiment: as above; conditions: 72 h
[11] = tested on: normal primary NK cells, pool 1 (3 donors) (IL-2 2.5 ng/mL); experiment: as above; conditions: 72 h
[12] = tested on: normal primary NK cells, pool 1 (3 donors), resting (IL-2 0 ng/mL); experiment: as above; conditions: 72 h
[13] = tested on: normal primary NK cells, pool 2 (3 donors) (IL-2 2.5 ng/mL); experiment: as above; conditions: 72 h
[14] = tested on: normal primary NK cells, pool 3 (3 donors) (IL-2 2.5 ng/mL); experiment: as above; conditions: 72 h
[15] = tested on: normal NK cells expanded with K562-aAPC; experiment: drug sensitivity score (DSS) (DSS units); higher = more sensitive; extreme values may be limits of the assay; conditions: 72 h; IL-2 2.5 ng/mL
Experimental: as §1

[16] = tested on: DERL-7 (IL-2 2.5 ng/mL); experiment: as above; conditions: 72 h
[17] = tested on: IMC-1 (IL-2 20 ng/mL); experiment: as above; conditions: 72 h
[18] = tested on: KAI3 (IL-2 2.5 ng/mL); experiment: as above; conditions: 72 h
[19] = tested on: KHYG-1 (IL-2 2.5 ng/mL); experiment: as above; conditions: 72 h
[20] = tested on: NK-92 (IL-2 2.5 ng/mL); experiment: as above; conditions: 72 h
[21] = tested on: NK-YS (IL-2 2.5 ng/mL); experiment: as above; conditions: 72 h
[22] = tested on: NKL (IL-2 2.5 ng/mL); experiment: as above; conditions: 72 h
[23] = tested on: SNK-6 (IL-2 2.5 ng/mL); experiment: as above; conditions: 72 h
[24] = tested on: YT (IL-2 2.5 ng/mL); experiment: as above; conditions: 72 h
[25] = tested on: normal primary NK cells, pool 1 (3 donors) (IL-2 2.5 ng/mL); experiment: as above; conditions: 72 h
[26] = tested on: normal primary NK cells, pool 1 (3 donors), resting (IL-2 0 ng/mL); experiment: as above; conditions: 72 h
[27] = tested on: normal primary NK cells, pool 2 (3 donors) (IL-2 2.5 ng/mL); experiment: as above; conditions: 72 h
[28] = tested on: normal primary NK cells, pool 3 (3 donors) (IL-2 2.5 ng/mL); experiment: as above; conditions: 72 h

CO[C@H]1C[C@@H]2CC[C@@H](C)[C@@](O)(O2)C(=O)C(=O)N2CCCC[C@H]2C(=O)O[C@H]([C@H](C)C[C@@H]2CC[C@@H](OC(=O)C(C)(CO)CO)[C@H](OC)C2)CC(=O)[C@H](C)/C=C(\C)[C@@H](O)[C@@H](OC)C(=O)[C@H](C)C[C@H](C)/C=C/C=C/C=C/1C [Temsirolimus] (max concentration tested 100 nM)
percent inhibition of viability [%]
Conditions	0.01 nM	0.1 nM	1 nM	10 nM	100 nM
[1]	0.06	1.82	7.35	7.61	23.3
[2]	0.65	5.41	38.2	53.8	56.5
[3]	1.04	2.24	-25.1	-30.5	-23.9
[4]	-1.9	13.1	35.1	48.4	54.7
[5]	-0.71	3.41	21.7	58.9	48.8
[6]	-7.3	7.2	12.8	33.5	36.9
[7]	-1.82	16.2	44.5	54.4	59
[8]	5.4	32.6	52	59.1	58.7
[9]	4.31	14	45.6	56	55.2
[10]	0.8	5.67	35.9	50.6	55.3
[11]	-5.13	4.99	6.83	10.7	11.2
[12]	-13.5	-0.02	6.4	10.2	4.95
[13]	-13.6	-11.5	7.96	18.8	14.9
[14]	-9.23	-18.3	1.68	12.1	12.8

Conditions	drug sensitivity score
[15]	1.25
[16]	15.1
[17]	0
[18]	14.2
[19]	13.4
[20]	7.04
[21]	17.4
[22]	21.6
[23]	17.2
[24]	14.4
[25]	0.28
[26]	0.07
[27]	3.24
[28]	0.84

C#Cc1cccc(Nc2ncnc3cc4c(cc23)OCCOCCOCCO4)c1 [Icotinib] (max concentration tested 10000 nM)
percent inhibition of viability [%]
Conditions	1 nM	10 nM	100 nM	1000 nM	10000 nM
[1]	-2.8	5.15	5.26	7.7	24.2
[2]	-3.69	4.28	2.21	-3.13	21.1
[3]	-2.8	-2.04	2.45	1.87	17.3
[4]	0.88	-3.16	3.15	-4.22	15.3
[5]	2.44	3.1	7.32	5.9	20.9
[6]	-11.7	-6.9	8.46	9.17	60.1
[7]	1.39	-0.84	6.96	1.74	17.6
[8]	-8.58	1.33	-2.78	-2.73	7.37
[9]	8.75	4.17	-5.78	8.65	12.1
[10]	-0.54	0.7	2.3	-0.04	20.5
[11]	2.64	-2.92	-2.29	-5.75	8.93
[12]	3.19	-9.84	4.39	-8.23	35.6
[13]	-5.53	5.07	5.9	-0.93	18.9
[14]	-12.7	-5.94	3.15	-6.39	-5.24

Conditions	drug sensitivity score
[15]	1.38
[16]	0.52
[17]	0.61
[18]	0.15
[19]	0.85
[20]	4.82
[21]	0.62
[22]	0
[23]	0.39
[24]	0.63
[25]	0
[26]	1.28
[27]	0.45
[28]	0

CCn1c(-c2nonc2N)nc2cnc(Oc3cccc(NC(=O)c4ccc(OCCN5CCOCC5)cc4)c3)cc21 (max concentration tested 10000 nM)
percent inhibition of viability [%]
Conditions	1 nM	10 nM	100 nM	1000 nM	10000 nM
[1]	7.28	-0.78	-0.39	9.1	43.7
[2]	1.35	15.3	42.9	62.8	72.7
[3]	-0.83	-2.25	6.95	14.1	26.8
[4]	-3.04	-8.72	11.1	37.2	95
[5]	1.19	3.45	16.6	24.8	68.2
[6]	-3.47	11.4	34.4	37.1	74
[7]	-0.26	-0.53	30.8	48.4	41.9
[8]	-13.6	-19.1	-8.42	24	52.5
[9]	-9.46	8.6	49.6	70.1	55.5
[10]	1.84	-0.78	1.36	15.7	28.5
[11]	-7.22	2.09	6.8	18.7	70
[12]	-4.42	-15.8	7.47	11.9	54.7
[13]	-8.71	-2.3	9.01	9.21	60.8
[14]	-9.45	-1.75	4.61	14.9	64.5

Conditions	drug sensitivity score
[15]	3.71
[16]	18.2
[17]	2.4
[18]	9.52
[19]	6.96
[20]	12.4
[21]	12.6
[22]	5.93
[23]	19.4
[24]	2.8
[25]	6.54
[26]	4.87
[27]	4.86
[28]	5.91

N#CC(c1ccnc(OCc2ccc(CN3CCOCC3)cc2)n1)c1nc2ccccc2s1 (stereo unspecified) [Bentamapimod] (max concentration tested 10000 nM)
percent inhibition of viability [%]
Conditions	1 nM	10 nM	100 nM	1000 nM	10000 nM
[1]	1.11	-7.13	0.02	9.12	35.7
[2]	-1.64	-1.25	-0.32	14.8	51.5
[3]	0.67	-4.76	0.93	6.64	58.2
[4]	-1.88	-7.11	-2.63	14.7	40.9
[5]	-0.61	-1.53	4.6	13.5	64
[6]	-0.51	-7.45	-6.19	10.8	47.6
[7]	-3.99	-3.72	3.63	20.3	47.6
[8]	-15.9	-16.8	-9.05	13.2	71.2
[9]	8.11	-3.58	-13.1	-25.4	8.78
[10]	-4.27	-0.56	3.3	13.5	56.8
[11]	-3.1	-0.66	-15.6	-7.74	4.64
[12]	3.62	7.45	-14.2	-14.4	-16.2
[13]	-16.9	-6.81	-3.2	-3.66	38.2
[14]	-6.62	-9.78	-6.35	-8.64	19.9

Conditions	drug sensitivity score
[15]	3.1
[16]	4.97
[17]	4.25
[18]	4.12
[19]	5.69
[20]	4.21
[21]	4.74
[22]	6.1
[23]	0
[24]	5.2
[25]	0
[26]	0
[27]	1.6
[28]	0.34
